Laboratory results taken from US12098139B2, “Chemokine receptor modulators and uses thereof” (RAPT Therapeutics, Inc., priority 2018, dated 2024).
Read-outs that look alike come from different tables or passages of the source.

Target: T1, hCCR4 (Chem5-hCCR4 cells) (Homo sapiens, UniProt P51679)
T1 sequence (P51679 1-360): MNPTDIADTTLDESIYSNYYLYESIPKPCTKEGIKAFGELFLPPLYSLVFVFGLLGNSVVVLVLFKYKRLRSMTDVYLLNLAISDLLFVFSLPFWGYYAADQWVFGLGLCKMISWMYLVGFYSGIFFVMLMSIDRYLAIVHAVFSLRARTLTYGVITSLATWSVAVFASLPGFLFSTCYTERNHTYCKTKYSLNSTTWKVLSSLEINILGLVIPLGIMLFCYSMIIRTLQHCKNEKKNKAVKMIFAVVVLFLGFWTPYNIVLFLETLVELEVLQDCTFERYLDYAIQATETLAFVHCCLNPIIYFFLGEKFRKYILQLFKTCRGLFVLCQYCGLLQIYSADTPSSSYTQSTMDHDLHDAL
Assay: Calcium flux assay (CCL22-stimulated, FLIPR Calcium 6 dye)
Assay type: cell-based
Settings: read-out: Potency (IC50)
Description: Calcium Flux Assay. Compounds were evaluated in a calcium flux assay substantially performed as follows. Chem5-hCCR4 cells (EMD Millipore, Hayward, CA; HTS009C) were cultured under standard conditions and frozen in aliquots of 10×10^6 cells/mL. The day prior to compound testing, a vial was rapidly thawed and pipetted into 20 mL media (DMEM+10% FBS+1% Pen-Strep+1% L-glutamine). Cells were harvested by centrifugation and re-suspended in fresh culture medium. 25 μL of cell suspension was seeded into 384-well plates (Corning, Tewksbury, MA; CellBind with black wall/clear bottom). The plates were centrifuged at 300 g for 10 seconds and incubated overnight at 37° C. and 5% CO2. The day of compound testing, media was removed from the plates and 25 μL serum free media was added to each well. Plates were returned to the incubator for 2 h. 25 μL assay buffer (Hank's balanced salt solution+20 mM HEPES pH 7.4) containing FLIPR Calcium 6 dye (Molecular Devices, Sunnyvale, CA; #R8191) and probenecid (2.5 mM) was added to each well and incubated at 37° C. and 5% CO2 for 2 h. Compounds in DMSO were added to the plates using an HP D300e digital dispenser, and all wells were normalized to contain 0.25 μL (0.5%) DMSO. Plates were incubated for 1 hour at 37° C. and 5% CO2. CCL22 (Peprotech; Rockyhill, NJ) was diluted in assay buffer containing 0.1% BSA to 7.5 nM (corresponding to 5×EC80 of 1.5 nM).
Assay plates and working solution of CCL22 were transferred to the FlexStation plate reader (Molecular Devices) at 37° C. for 5 min of equilibration. Fluorescence recordings at 485 excitation/525 emission were performed at 2.5 second intervals. At t=16 seconds, 12.5 μL of CCL22 solution was added to each well and reads continued for 30 seconds at 2.5 second intervals. The minimum fluorescence (Fmin) was calculated by averaging the reads prior to ligand addition and the change in fluorescence (ΔF) was calculated by subtracting the Fmin from the average of the reads following ligand addition. The response ΔF/Fmin was plotted as a function of the compound concentration and the IC50 values were determined by non-linear regression analysis using a 4-parameter fit in either PRISM software (GraphPad; La Jolla, CA) or Dotmatics Browser.

Row | IC50 (Table 3, CCL22 1.5 nM) | IC50 (Table 5, CCL22 1.5 nM) | Structure (SMILES) | other results
1 | 100 to 500 nM | – | C[C@@H](Nc1nc(N2CC([C@H]3CCCN(CCO)C3)C2)nc2c1CCC2)c1ccc(Cl)cc1Cl [Example 24, 2-((R)-3-(1-(4-(((R)-1-(2,4-dichlorophenyl)ethyl)amino)-6,7-dihydro-5H-cyclopenta[d]pyrimidin-2-yl)azetidin-3-yl)piperidin-1-yl)ethan-1-ol] | –
2 | – | < 100 nM | C[C@@H](Nc1nc(N2CC([C@H]3CCCN(C4CC(C)(C(=O)O)C4)C3)C2)nc2ccn(C)c12)c1ccc(Cl)cc1Cl (single isomer, unassigned) [Example 81, trifluoroacetic acid] | –
3 | – | < 100 nM | CC(Nc1nc(N2CC([C@H]3CCCN(CCO)C3)C2)ncc1Cl)c1ccc(Cl)cc1F (stereo partly drawn) [Example 63, 2-[(3R)-3-[1-[5-chloro-4-[1-(4-chloro-2-fluoro-phenyl)ethylamino]pyrimidin-2-yl]azetidin-3-yl]-1-piperidyl]ethanol; 2,2,2-trifluoroacetic acid] | –
4 | < 100 nM | – | C[C@@H](Nc1nc(N2CC([C@H]3CCCN([C@H]4C[C@](C)(C(=O)O)C4)C3)C2)nc(C(F)(F)F)c1Cl)c1ccc(Cl)cc1Cl [Example 37, (1R,3r)-3-((R)-3-(1-(5-chloro-4-(((R)-1-(2,4-dichlorophenyl)ethyl)amino)-6-(trifluoromethyl)pyrimidin-2-yl)azetidin-3-yl)piperidin-1-yl)-1-methylcyclobutane-1-carboxylic acid] | –
5 | – | < 100 nM | Cc1nc(N2CC([C@H]3CCCN(C4CC(C)(C(=O)O)C4)C3)C2)nc(N[C@H](C)c2ccc(Cl)cc2Cl)c1F (single isomer, unassigned) [Example 91, trifluoroacetic acid] | –
6 | < 100 nM | – | C[C@@H](Nc1nc(N2CC([C@H]3CCCN(CCO)C3)C2)ncc1Br)c1ccc(Cl)cc1Cl [Example 11, 2-((R)-3-(1-(5-bromo-4-(((R)-1-(2,4-dichlorophenyl)ethyl)amino)pyrimidin-2-yl)azetidin-3-yl)piperidin-1-yl)ethan-1-ol] | –
7 | – | 100 to 500 nM | C[C@@H](Nc1nc(N2CC([C@H]3CCCN(C4CC(C)(C(=O)O)C4)C3)C2)nc2nc[nH]c12)c1ccc(Cl)cc1Cl (single isomer, unassigned) [Example 69] | –
8 | < 100 nM | – | C[C@@H](Nc1nc(N2CC([C@H]3CCCN([C@H]4C[C@@](C)(C(=O)O)C4)C3)C2)nc2ccccc12)c1ccc(Cl)cc1Cl [Example 27, (1S,3s)-3-((R)-3-(1-(4-(((R)-1-(2,4-dichlorophenyl)ethyl)amino)quinazolin-2-yl)azetidin-3-yl)piperidin-1-yl)-1-methylcyclobutane-1-carboxylic acid] | –
9 | – | < 100 nM | C[C@@H](Nc1nc(N2CC([C@H]3CCCN(C4CC(C)(C(=O)O)C4)C3)C2)nc(CO)c1Cl)c1ccc(Cl)cc1Cl (single isomer, unassigned) [Example 86] | –
10 | – | < 100 nM | CC(O)c1cnc(N2CC([C@H]3CCCN([C@H]4C[C@](C)(C(=O)O)C4)C3)C2)nc1N[C@H](C)c1ccc(Cl)cc1Cl (stereo partly drawn) [Example 58, 3-[(3R)-3-[1-[4-[[(1R)-1-(2,4-dichlorophenyl)ethyl]amino]-5-(1-hydroxyethyl)pyrimidin-2-yl]azetidin-3-yl]-1-piperidyl]-1-methyl-cyclobutanecarboxylic acid; 2,2,2-trifluoroacetic acid] | –
11 | > 500 nM | – | C[C@@H](Nc1nc(N2CC([C@H]3CCCN(CCO)C3)C2)ncc1C(F)(F)F)c1ccc(Cl)cc1Cl [Example 15, 2-((R)-3-(1-(4-(((R)-1-(2,4-dichlorophenyl)ethyl)amino)-5-(trifluoromethyl)pyrimidin-2-yl)azetidin-3-yl)piperidin-1-yl)ethan-1-ol] | –
12 | 100 to 500 nM | – | C[C@@H](Nc1nc(N2CC([C@H]3CCCN(CCO)C3)C2)ncc1Cl)c1ccc(F)cc1Cl [Example 44, 2-((R)-3-(1-(5-chloro-4-(((R)-1-(2-chloro-4-fluorophenyl)ethyl)amino)pyrimidin-2-yl)azetidin-3-yl)piperidin-1-yl)ethan-1-ol] | –
13 | > 500 nM | – | C[C@@H](Nc1nc(N2CC([C@H]3CCCN([C@H]4C[C@@H](C(=O)O)C4)C3)C2)ncc1F)c1ccc(Cl)cc1Cl [Example 46, (1S,3s)-3-((R)-3-(1-(4-(((R)-1-(2,4-dichlorophenyl)ethyl)amino)-5-fluoropyrimidin-2-yl)azetidin-3-yl)piperidin-1-yl)cyclobutane-1-carboxylic acid] | –
14 | > 500 nM | – | C[C@@H](Nc1nc(N2CC([C@H]3CCCN(CCO)C3)C2)ncc1C(=O)O)c1ccc(Cl)cc1Cl [Example 33, 4-(((R)-1-(2,4-dichlorophenyl)ethyl)amino)-2-(3-((R)-1-(2-hydroxyethyl)piperidin-3-yl)azetidin-1-yl)pyrimidine-5-carboxylic acid] | –
15 | – | – | C[C@@H](Nc1nc(N2CC([C@H]3CCCN(C4CC(C)(C(=O)O)C4)C3)C2)cnc1C#N)c1ccc(Cl)cc1Cl (stereo partly drawn) [Example 51, 3-[(1S,3R)-3-[1-[5-cyano-6-[[(1R)-1-(2,4-dichlorophenyl)ethyl]amino]pyrazin-2-yl]azetidin-3-yl]-1-piperidyl]-1-methyl-cyclobutanecarboxylic acid; 2,2,2-trifluoroacetic acid] | IC50 (Table 4, CCL22 1.5 nM): > 500 nM
16 | – | 100 to 500 nM | C[C@@H](Nc1cc(C(F)(F)F)nc(N2CC([C@H]3CCCN([C@H]4C[C@](C)(C(=O)O)C4)C3)C2)n1)c1ccc(Cl)cc1Cl [Example 59, 3-[(1R)-3-[1-[4-[[(1R)-1-(2,4-dichlorophenyl)ethyl]amino]-6-(trifluoromethyl)pyrimidin-2-yl]azetidin-3-yl]-1-piperidyl]-1-methyl-cyclobutanecarboxylic acid] | –
17 | 100 to 500 nM | – | Cc1cnc(N2CC([C@H]3CCCN([C@H]4C[C@](C)(C(=O)O)C4)C3)C2)nc1N[C@H](C)c1ccc(Cl)cc1Cl [Example 36, (1R,3r)-3-((R)-3-(1-(4-(((R)-1-(2,4-dichlorophenyl)ethyl)amino)-5-methylpyrimidin-2-yl)azetidin-3-yl)piperidin-1-yl)-1-methylcyclobutane-1-carboxylic acid] | –
18 | < 100 nM | – | C[C@@H](Nc1nc(N2CC([C@H]3CCCN(CCO)C3)C2)nc2ccccc12)c1ccc(Cl)cc1Cl [Example 26, 2-((R)-3-(1-(4-(((R)-1-(2,4-dichlorophenyl)ethyl)amino)quinazolin-2-yl)azetidin-3-yl)piperidin-1-yl)ethan-1-ol] | –
19 | < 100 nM | – | Cc1nc(N2CC([C@H]3CCCN([C@H]4C[C@](C)(C(=O)O)C4)C3)C2)nc(N[C@H](C)c2ccc(Cl)cc2Cl)c1C [Example 22, (1R,3r)-3-((R)-3-(1-(4-(((R)-1-(2,4-dichlorophenyl)ethyl)amino)-5,6-dimethylpyrimidin-2-yl)azetidin-3-yl)piperidin-1-yl)-1-methylcyclobutane-1-carboxylic acid] | –
20 | < 100 nM | – | C[C@@H](Nc1nc(N2CC([C@H]3CCCN([C@H]4C[C@@H](C(=O)O)C4)C3)C2)nc2ccccc12)c1ccc(Cl)cc1Cl [Example 25, (1S,3s)-3-((R)-3-(1-(4-(((R)-1-(2,4-dichlorophenyl)ethyl)amino)quinazolin-2-yl)azetidin-3-yl)piperidin-1-yl)cyclobutane-1-carboxylic acid] | –
21 | – | < 100 nM | CCc1cc(N[C@H](C)c2ccc(Cl)cc2Cl)nc(N2CC([C@H]3CCCN(C4CC(C)(C(=O)O)C4)C3)C2)n1 (single isomer, unassigned) [Example 92] | –
22 | – | – | C[C@@H](Nc1nc(N2CC([C@H]3CCCN(CCO)C3)C2)cnc1C#N)c1ccc(Cl)cc1S(C)(=O)=O [Example 49, 3-[[(1R)-1-(4-chloro-2-methylsulfonyl-phenyl)ethyl]amino]-5-[3-[(3R)-1-(2-hydroxyethyl)-3-piperidyl]azetidin-1-yl]pyrazine-2-carbonitrile; 2,2,2-trifluoroacetic acid] | IC50 (Table 4, CCL22 1.5 nM): > 500 nM
23 | – | < 100 nM | C[C@@H](Nc1nc(N2CC([C@H]3CCCN(CCO)C3)C2)nc2sccc12)c1ccc(Cl)cc1Cl [Example 61, 2-[(3R)-3-[1-[4-[[(1R)-1-(2,4-dichlorophenyl)ethyl]amino]thieno[2,3-d]pyrimidin-2-yl]azetidin-3-yl]-1-piperidyl]ethanol; 2,2,2-trifluoroacetic acid] | –
